Source: ChEMBL document CHEMBL1127503, “3'-(Arylmethyl)- and 3'-(aryloxy)-3-phenyl-4-hydroxyquinolin-2(1H)-ones: orally active antagonists of the glycine site on the NMDA receptor” (J Med Chem, 1994)

Experiments:
[1] = tested on: Mus musculus; assay: Protection from audiogenic seizure in the DBA/2 mouse 30 min after intraperitoneal administration; type: functional; conditions: ip, 0.5 h
[2] = tested on: Mus musculus; assay: Protection from audiogenic seizure in the DBA/2 mouse 30 min after oral administration; type: functional; conditions: 0.5 h
[3] = target: Glutamate receptor ionotropic, NMDA 1 (Rattus norvegicus, UniProt P35439); assay: Inhibition of the binding of [3H]L-689,560 ([3H]-4) to the strychnine-insensitive glycine site on rat brain membranes; type: cell membranes, Membrane
[4] = species on record: Rattus norvegicus; assay: Blockade of NMDA-induced depolarizations on rat cortical slices; type: functional
[5] = tested on: Mus musculus; assay: Protection from audiogenic seizure in the DBA/2 mouse 10 min after intraperitoneal administration; type: functional; conditions: ip

IC50 [3]	Compound	ED50 [1]	ED50 [2]	Kb [4]	ED50 [5]
2.3 nM	Oc1nc2cc(Cl)ccc2c(O)c1-c1cccc(Cc2ccsc2)c1	1.5 mg/kg	5.1 mg/kg	19 nM	–
170 nM	O=c1[nH]c2cc(Cl)ccc2c(O)c1-c1ccccc1	4.5 mg/kg	7.6 mg/kg	880 nM	–
2.2 nM	COCOc1ccc(Cc2cccc(-c3c(O)nc4cc(Cl)ccc4c3O)c2)cc1	0.5 mg/kg	0.9 mg/kg	3.2 nM	–
4 nM	O=C(Nc1ccccc1)N[C@H]1C[C@H](C(=O)O)Nc2cc(Cl)cc(Cl)c21	> 100 mg/kg	–	110 nM	–
2 nM	O=c1[nH]c2cc(Cl)ccc2c(O)c1-c1cccc(Oc2ccccc2)c1	0.9 mg/kg	0.9 mg/kg	28 nM	–
1.4 nM	Oc1nc2cc(Cl)ccc2c(O)c1-c1cccc(Oc2ccsc2)c1	0.8 mg/kg	0.8 mg/kg	5 nM	–
14 nM	O=C(O)c1cc(O)c2c(I)cc(Cl)cc2n1	> 250 mg/kg	–	410 nM	–
4.5 nM	COc1ccc(Cc2cccc(-c3c(O)c4ccc(Cl)cc4[nH]c3=O)c2)cc1	0.7 mg/kg	0.9 mg/kg	25 nM	–
–	Oc1nc2cc(Cl)ccc2c(O)c1-c1cccc(Cc2ccccc2)c1	–	3.9 mg/kg	87 nM	1.3 mg/kg

Compound	IC50 [3]	ED50 [1]	ED50 [2]	Kb [4]	ED50 [5]
O=C(O)CCc1c(C(=O)O)[nH]c2cc(Cl)cc(Cl)c12	69 nM	> 100 mg/kg	–	1320 nM	–
